From ChEMBL document CHEMBL3397002, “Design, synthesis, and bioevaluation of paeonol derivatives as potential anti-HBV agents” (Eur J Med Chem, 2015)

Tests used:
Hepatitis B virus [1] = experiment: Decrease in HBV viral DNA replication in human HepG2(2.2.15) cells at 0.75 to 3 uM after 72 hrs by real-time PCR analysis; type: functional, organism-based; details: HepG2 2.2.15, 72 h
[2] = Selectivity index, ratio of TC50 for human HepG2(2.2.15) cells to IC50 for decrease in HBV viral DNA replication in human HepG2(2.2.15) cells
[3] = Cytotoxicity against human HepG2(2.2.15) cells assessed as decrease in cell viability after 72 hrs by MTS assay; type: cell-based; details: read-out: TC50
Hepatitis B virus [4] = experiment: Decrease in hepatitis B viral surface antigen HBeAg secretion in human HepG2(2.2.15) cells at 0.75 to 3 uM after 72 hrs by EIA analysis; type: functional, organism-based; details: HepG2 2.2.15, 72 h
[5] = Selectivity index, ratio of TC50 for human HepG2(2.2.15) cells to IC50 for decrease in hepatitis B viral surface antigen HBeAg secretion in human HepG2(2.2.15) cells
Hepatitis B virus [6] = experiment: Decrease in hepatitis B viral surface antigen HBsAg secretion in human HepG2(2.2.15) cells at 0.75 to 3 uM after 72 hrs by EIA analysis; type: functional, organism-based; details: HepG2 2.2.15, 72 h
[7] = Selectivity index, ratio of TC50 for human HepG2(2.2.15) cells to IC50 for decrease in hepatitis B viral surface antigen HBsAg secretion in human HepG2(2.2.15) cells
Hepatitis B virus [8] = experiment: Decrease in level of HBV 3.5-kb precore/pregenomic and 2.4-/2.1-kb surface antigen RNA in human HepG2(2.2.15) cells after 48 hrs by Northern blot analysis; type: functional, organism-based
[9] = Effect on cell cycle of human HepG2(2.2.15) cells assessed as cells at G1 phase at 0.75 to 3 uM after 72 hrs by propidium iodide staining based flow cytometry; type: ADME; details: hepg2 2.2.15, 72 h
[10] = Effect on cellular morphology of human HepG2(2.2.15) cells at 0.75 to 3 uM after 72 hrs by Giemsa staining method; type: ADME, cell-based; details: hepg2 2.2.15, 72 h
[11] = Effect on cell cycle of human HepG2(2.2.15) cells assessed as cells at G2M phase at 0.75 to 3 uM after 72 hrs by propidium iodide staining based flow cytometry; type: ADME; details: hepg2 2.2.15, 72 h

With `Nc1ccn([C@@H]2CS[C@H](CO)O2)c(=O)n1` [LAMIVUDINE] the IC50 (Hepatitis B virus [1]) was 7.63 µM, the “Selectivity Index” value [2] was 46.13 and the CC50 at 72 h [3] was 352 µM.

With `COc1ccc(C(C)=O)c(OS(=O)(=O)c2ccc(F)cc2)c1` the IC50 (Hepatitis B virus [4]) was 11.2 µM, the “Selectivity Index” value [5] was 4.81 and the IC50 (Hepatitis B virus [6]) was 5.05 µM. For the same molecule, the “Selectivity Index” value [7] was 10.64, the IC50 (Hepatitis B virus [1]) was 2.71 µM and the “Selectivity Index” value [2] was 19.82. For the same molecule, the CC50 at 72 h [3] was 53.7 µM.

For `COc1ccc(C(C)=O)c(OS(=O)(=O)c2ccc(Cl)cc2)c1`, the IC50 (Hepatitis B virus [4]) was 4.2 µM, the “Selectivity Index” value [5] was 3.28 and the IC50 (Hepatitis B virus [6]) was 2.83 µM. For the same molecule, the “Selectivity Index” value [7] was 4.87, the IC50 (Hepatitis B virus [1]) was 0.57 µM and the “Selectivity Index” value [2] was 24.16. It also gave a CC50 at 72 h [3] of 13.8 µM.

For `COc1ccc(C(C)=O)c(OS(=O)(=O)c2ccc(C)cc2)c1`, the IC50 (Hepatitis B virus [4]) was 6.83 µM, the “Selectivity Index” value [5] was 3.47 and the IC50 (Hepatitis B virus [6]) was 3.18 µM. For the same molecule, the “Selectivity Index” value [7] was 7.46, the IC50 (Hepatitis B virus [1]) was 1.04 µM and the “Selectivity Index” value [2] was 22.81. The CC50 at 72 h [3] was 23.7 µM.

In the case of `COc1ccc(C(C)=O)c(OS(=O)(=O)c2ccccc2)c1`, the IC50 (Hepatitis B virus [4]) is reported as 16.5 µM, the “Selectivity Index” value [5] is reported as 3.36 and the IC50 (Hepatitis B virus [6]) is reported as 7.3 µM. For the same molecule, the “Selectivity Index” value [7] was 7.58, the IC50 (Hepatitis B virus [1]) was 1.86 µM and the “Selectivity Index” value [2] was 29.77. The CC50 at 72 h [3] was 55.4 µM.

In the case of `COc1ccc(C(C)=O)c(OS(=O)(=O)c2ccc(N)cc2)c1`, the IC50 (Hepatitis B virus [4]) is reported as 72.5 µM, the “Selectivity Index” value [5] is reported as 0.95 and the IC50 (Hepatitis B virus [6]) is reported as 21.7 µM. For the same molecule, the “Selectivity Index” value [7] was 3.17 and the CC50 at 72 h [3] was 68.8 µM.

With `COc1ccc(S(=O)(=O)Oc2cc(OC)ccc2C(C)=O)cc1` the inhibition (Hepatitis B virus [8]) was “Dose-dependent effect”, the IC50 (Hepatitis B virus [4]) was 2.24 µM and the “Selectivity Index” value [5] was 7.67. For the same molecule, the Activity [9] was “Non-toxic”, the IC50 (Hepatitis B virus [6]) was 1.55 µM and the “Selectivity Index” value [7] was 11.09. The Activity [10] was “Non-toxic”, the IC50 (Hepatitis B virus [1]) was 0.36 µM and the Activity [11] was “Non-toxic”. The “Selectivity Index” value [2] was 47.75 and the CC50 at 72 h [3] was 17.2 µM.

With `COc1ccc(C(C)=O)c(OS(=O)(=O)c2ccc(Br)cc2)c1` the IC50 (Hepatitis B virus [4]) was 1.86 µM, the “Selectivity Index” value [5] was 5.42 and the IC50 (Hepatitis B virus [6]) was 2.01 µM. The “Selectivity Index” value [7] was 4.99, the IC50 (Hepatitis B virus [1]) was 0.44 µM and the “Selectivity Index” value [2] was 22.91. The CC50 at 72 h [3] was 10.1 µM.

`O=c1[nH]cc(F)c(=O)[nH]1` [FLUOROURACIL] showed a CC50 at 72 h [3] of 21.7 µM.

For `COc1ccc(C(C)=O)c(OS(=O)(=O)c2ccc([N+](=O)[O-])cc2)c1`, the IC50 (Hepatitis B virus [4]) was 4.64 µM, the “Selectivity Index” value [5] was 2.35 and the IC50 (Hepatitis B virus [6]) was 1.77 µM. The “Selectivity Index” value [7] was 6.17, the IC50 (Hepatitis B virus [1]) was 1.15 µM and the “Selectivity Index” value [2] was 9.5. The CC50 at 72 h [3] was 10.9 µM.
